Laboratory results: ChEMBL document CHEMBL1641446, “Novel pyrrolo[2,1-f][1,2,4]triazin-4-amines: Dual inhibitors of EGFR and HER2 protein tyrosine kinases” (Bioorg Med Chem Lett, 2011)

Assays:
[1] = target: Epidermal growth factor receptor (Homo sapiens) (UniProt P00533); test: Inhibition of EGFR
[2] = target: Receptor tyrosine-protein kinase erbB-2 (Homo sapiens) (UniProt P04626); test: Inhibition of HER2
A2780 = test: Antiproliferative activity against human A2780 cells; assay type: functional, cell-based
NCI-N87 [3] = test: Antiproliferative activity against human NCI-N87 cells; assay type: functional, cell-based
[4] = Antitumor activity against human GEO cells xenografted in po dosed athymic mouse assessed as minimum effective dose; assay type: functional; settings: read-out: MED
[5] = Drug level in BALB/c mouse at 15 mg/kg, po after 3 hrs; assay type: ADME, organism-based; design: dose 15 mg/kg, route oral; settings: in vivo, read-out: Drug uptake
[6] = Fraction unbound in BALB/c mouse serum at 10 uM by equilibrium dialysis; assay type: ADME, cell-free
[7] = target: Tyrosine-protein kinase Lck (Homo sapiens, UniProt P06239); test: Inhibition of LCK
[8] = target: Vascular endothelial growth factor receptor 2 (Homo sapiens, UniProt P35968); test: Inhibition of KDR
[9] = AUC ( 0 to 24 hrs) in BALB/c mouse at 15 mg/kg, po; assay type: ADME, organism-based; design: time < 24 hr, dose 15 mg/kg, route oral; settings: plasma
[10] = Drug level in BALB/c mouse at 15 mg/kg, po after 24 hrs; assay type: ADME, organism-based; design: dose 15 mg/kg, route oral; settings: in vivo, read-out: Drug uptake
NCI-N87 [11] = test: Antitumor activity against human NCI-N87 cells xenografted in po dosed athymic mouse assessed as minimum effective dose administered Q1D for 14 days; settings: 336 h, read-out: MED
[12] = AUC ( 0 to 24 hrs) in BALB/c mouse at 240 mg/kg, po; assay type: ADME, organism-based; design: time < 24 hr, dose 240 mg/kg, route oral; settings: plasma
[13] = Drug level in BALB/c mouse at 240 mg/kg, po after 24 hrs; assay type: ADME, organism-based; design: dose 240 mg/kg, route oral; settings: in vivo, read-out: Drug uptake
[14] = Drug level in BALB/c mouse at 240 mg/kg, po after 3 hrs; assay type: ADME, organism-based; design: dose 240 mg/kg, route oral; settings: in vivo, read-out: Drug uptake
[15] = Cmax in BALB/c mouse at 50 mg/kg, po; assay type: ADME, organism-based; design: dose 50 mg/kg, route oral; settings: in vivo
[16] = Drug level in BALB/c mouse at 50 mg/kg, po after 4 hrs; assay type: ADME, organism-based; design: dose 50 mg/kg, route oral; settings: in vivo, read-out: Drug uptake
[17] = Homo sapiens, A2780, read-out: IC50
[18] = Homo sapiens, NCI-N87, read-out: IC50

Chain of Receptor tyrosine-protein kinase erbB-2 (Homo sapiens) (P04626 whole entry, looked up): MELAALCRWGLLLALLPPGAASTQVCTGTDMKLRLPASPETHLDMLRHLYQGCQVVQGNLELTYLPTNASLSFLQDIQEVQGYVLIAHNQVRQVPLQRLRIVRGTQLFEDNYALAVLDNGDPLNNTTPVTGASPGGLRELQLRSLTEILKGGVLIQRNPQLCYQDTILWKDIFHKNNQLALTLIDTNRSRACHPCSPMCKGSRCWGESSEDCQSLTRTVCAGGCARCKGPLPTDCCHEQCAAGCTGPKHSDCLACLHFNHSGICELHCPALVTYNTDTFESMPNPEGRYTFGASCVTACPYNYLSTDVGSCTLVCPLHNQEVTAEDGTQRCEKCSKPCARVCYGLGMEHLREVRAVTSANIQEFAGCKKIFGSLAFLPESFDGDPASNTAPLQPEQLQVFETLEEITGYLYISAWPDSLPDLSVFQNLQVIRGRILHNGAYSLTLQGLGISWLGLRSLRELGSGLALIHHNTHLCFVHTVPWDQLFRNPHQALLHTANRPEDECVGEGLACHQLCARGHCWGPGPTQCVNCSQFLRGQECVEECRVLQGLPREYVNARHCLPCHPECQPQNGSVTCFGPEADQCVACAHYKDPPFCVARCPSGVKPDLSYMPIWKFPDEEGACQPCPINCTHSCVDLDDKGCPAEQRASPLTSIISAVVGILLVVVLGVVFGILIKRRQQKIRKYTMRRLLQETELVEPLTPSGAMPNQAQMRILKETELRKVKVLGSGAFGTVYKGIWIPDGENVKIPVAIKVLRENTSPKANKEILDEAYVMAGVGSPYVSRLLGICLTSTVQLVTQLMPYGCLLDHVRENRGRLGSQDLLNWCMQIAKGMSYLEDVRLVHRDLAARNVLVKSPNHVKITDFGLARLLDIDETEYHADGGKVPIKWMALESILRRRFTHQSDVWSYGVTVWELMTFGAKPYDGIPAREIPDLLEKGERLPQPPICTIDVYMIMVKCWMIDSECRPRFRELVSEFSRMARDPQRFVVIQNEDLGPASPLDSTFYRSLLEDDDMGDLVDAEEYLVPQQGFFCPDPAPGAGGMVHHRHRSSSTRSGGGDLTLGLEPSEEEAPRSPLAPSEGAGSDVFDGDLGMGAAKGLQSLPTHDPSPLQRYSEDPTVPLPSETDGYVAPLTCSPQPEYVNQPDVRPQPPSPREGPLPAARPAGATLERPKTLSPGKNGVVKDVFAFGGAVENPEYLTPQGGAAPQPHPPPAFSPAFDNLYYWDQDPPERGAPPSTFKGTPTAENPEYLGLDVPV
Chain of Epidermal growth factor receptor (Homo sapiens) (P00533 whole entry, looked up): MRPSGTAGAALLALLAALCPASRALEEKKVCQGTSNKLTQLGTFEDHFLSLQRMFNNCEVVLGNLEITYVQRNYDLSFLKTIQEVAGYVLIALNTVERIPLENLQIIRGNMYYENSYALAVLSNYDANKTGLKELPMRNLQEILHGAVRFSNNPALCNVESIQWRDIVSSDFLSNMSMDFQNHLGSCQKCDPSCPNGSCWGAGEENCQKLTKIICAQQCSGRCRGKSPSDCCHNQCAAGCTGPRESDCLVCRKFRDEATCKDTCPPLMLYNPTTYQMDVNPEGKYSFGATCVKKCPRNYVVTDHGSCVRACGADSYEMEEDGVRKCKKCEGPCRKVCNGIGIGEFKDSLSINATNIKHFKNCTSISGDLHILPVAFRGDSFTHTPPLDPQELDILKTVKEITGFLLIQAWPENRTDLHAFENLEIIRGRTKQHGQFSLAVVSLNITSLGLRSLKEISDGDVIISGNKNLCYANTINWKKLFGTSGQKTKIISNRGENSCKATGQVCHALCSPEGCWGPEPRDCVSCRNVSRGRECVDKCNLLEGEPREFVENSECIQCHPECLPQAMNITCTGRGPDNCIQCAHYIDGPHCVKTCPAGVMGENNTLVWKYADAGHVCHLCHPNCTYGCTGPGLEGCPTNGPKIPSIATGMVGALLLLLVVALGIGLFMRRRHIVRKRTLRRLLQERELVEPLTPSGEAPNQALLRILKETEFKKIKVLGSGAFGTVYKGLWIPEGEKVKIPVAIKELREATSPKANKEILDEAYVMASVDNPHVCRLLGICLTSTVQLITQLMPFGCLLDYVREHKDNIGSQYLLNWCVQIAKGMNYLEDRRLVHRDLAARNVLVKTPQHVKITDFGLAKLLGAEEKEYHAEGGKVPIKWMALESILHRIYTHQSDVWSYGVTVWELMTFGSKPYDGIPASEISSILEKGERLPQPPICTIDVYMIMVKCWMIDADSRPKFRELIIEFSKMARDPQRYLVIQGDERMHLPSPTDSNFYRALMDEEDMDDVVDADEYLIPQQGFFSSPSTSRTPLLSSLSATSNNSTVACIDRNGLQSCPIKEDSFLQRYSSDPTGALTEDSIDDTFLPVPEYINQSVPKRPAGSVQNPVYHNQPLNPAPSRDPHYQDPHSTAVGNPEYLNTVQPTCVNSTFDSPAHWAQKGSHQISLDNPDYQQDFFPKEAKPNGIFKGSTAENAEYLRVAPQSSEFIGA
Chain of Tyrosine-protein kinase Lck (P06239 whole entry): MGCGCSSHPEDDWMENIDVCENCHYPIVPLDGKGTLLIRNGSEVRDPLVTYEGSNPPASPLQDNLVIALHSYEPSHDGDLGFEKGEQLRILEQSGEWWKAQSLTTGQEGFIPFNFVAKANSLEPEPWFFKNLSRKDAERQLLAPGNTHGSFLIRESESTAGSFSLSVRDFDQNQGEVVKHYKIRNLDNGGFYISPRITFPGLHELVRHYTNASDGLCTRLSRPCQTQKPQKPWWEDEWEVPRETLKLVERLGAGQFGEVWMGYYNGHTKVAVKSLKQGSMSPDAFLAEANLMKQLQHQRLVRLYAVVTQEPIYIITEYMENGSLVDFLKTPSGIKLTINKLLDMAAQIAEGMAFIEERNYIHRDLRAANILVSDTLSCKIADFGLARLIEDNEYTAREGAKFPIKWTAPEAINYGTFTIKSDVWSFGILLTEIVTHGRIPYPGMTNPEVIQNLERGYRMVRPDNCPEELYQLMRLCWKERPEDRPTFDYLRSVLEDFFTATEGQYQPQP
Chain of Vascular endothelial growth factor receptor 2 (P35968 whole entry): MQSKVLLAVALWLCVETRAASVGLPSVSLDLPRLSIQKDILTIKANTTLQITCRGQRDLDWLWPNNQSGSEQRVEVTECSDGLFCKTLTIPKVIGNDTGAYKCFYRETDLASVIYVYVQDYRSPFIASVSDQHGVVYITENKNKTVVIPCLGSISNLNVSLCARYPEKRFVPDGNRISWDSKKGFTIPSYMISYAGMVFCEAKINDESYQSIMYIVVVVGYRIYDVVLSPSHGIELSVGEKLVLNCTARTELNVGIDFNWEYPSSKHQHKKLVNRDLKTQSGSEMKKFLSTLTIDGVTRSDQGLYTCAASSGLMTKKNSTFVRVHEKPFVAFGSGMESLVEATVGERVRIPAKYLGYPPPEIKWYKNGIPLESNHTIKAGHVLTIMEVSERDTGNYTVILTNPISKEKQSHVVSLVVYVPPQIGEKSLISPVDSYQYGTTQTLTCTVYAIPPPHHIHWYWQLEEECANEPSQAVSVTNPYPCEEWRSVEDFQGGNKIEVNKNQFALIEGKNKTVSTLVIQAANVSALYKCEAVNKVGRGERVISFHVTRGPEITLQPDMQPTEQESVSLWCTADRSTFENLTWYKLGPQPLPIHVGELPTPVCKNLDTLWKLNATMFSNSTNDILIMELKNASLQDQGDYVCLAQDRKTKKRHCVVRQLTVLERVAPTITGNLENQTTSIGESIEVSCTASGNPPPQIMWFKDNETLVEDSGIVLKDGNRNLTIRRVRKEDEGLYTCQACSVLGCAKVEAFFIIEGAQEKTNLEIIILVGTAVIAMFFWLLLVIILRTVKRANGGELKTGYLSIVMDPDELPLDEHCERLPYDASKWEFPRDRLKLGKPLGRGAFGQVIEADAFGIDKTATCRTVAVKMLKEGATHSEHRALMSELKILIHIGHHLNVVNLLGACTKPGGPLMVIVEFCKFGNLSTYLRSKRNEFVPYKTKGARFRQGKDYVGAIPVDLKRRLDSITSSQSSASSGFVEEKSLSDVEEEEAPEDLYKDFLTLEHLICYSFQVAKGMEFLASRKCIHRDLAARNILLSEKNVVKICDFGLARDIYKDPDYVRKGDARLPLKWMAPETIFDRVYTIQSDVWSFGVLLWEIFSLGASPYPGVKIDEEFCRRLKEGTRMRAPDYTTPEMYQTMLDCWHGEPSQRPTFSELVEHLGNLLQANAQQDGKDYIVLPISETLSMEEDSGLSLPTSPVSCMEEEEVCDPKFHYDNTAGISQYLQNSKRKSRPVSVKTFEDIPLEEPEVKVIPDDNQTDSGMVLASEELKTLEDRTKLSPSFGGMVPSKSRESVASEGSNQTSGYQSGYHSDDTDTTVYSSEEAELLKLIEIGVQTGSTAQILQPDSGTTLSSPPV

SMILES	IC50 [1] [nM]	IC50 [2] [nM]	IC50 (A2780; [17]) [nM]	IC50 (NCI-N87 [3]; [18]) [nM]	other results
Cn1ncc2cc(Nc3ncnn4ccc(COC[C@@H]5CNCCO5)c34)ccc21	> 1000	> 1000	–	–	IC50 (A2780; a2780): Not Active; IC50 (NCI-N87 [3]; nci-n87): Not Active
Cn1ncc2cc(Nc3ncnn4ccc(CN5CCC(N)CC5)c34)ccc21	360	950	–	–	IC50 (A2780; a2780): Not Active; IC50 (NCI-N87 [3]; nci-n87): Not Active
C#Cc1cccc(Nc2ncnn3ccc(COC[C@@H]4CNCCO4)c23)c1	20	670	3900	4400	–
C#Cc1cccc(Nc2ncnn3ccc(CN4CCC(N)CC4)c23)c1	7	10	2300	120	minimal effective dose [4]: 15 mg/kg
NC1CCN(Cc2ccn3ncnc(Nc4ccccc4)c23)CC1	–	–	3700	140	–
CC(C)Nc1ncnn2ccc(CN3CCC(N)CC3)c12	880	> 1000	–	–	–
Cc1ccccc1Nc1ncnn2ccc(CN3CCC(N)CC3)c12	20	660	> 5000	3300	–
Cc1cccc(Nc2ncnn3ccc(CN4CCC(N)CC4)c23)c1	5	20	> 5000	140	minimal effective dose [4]: 60 mg/kg
Cc1ccc(Nc2ncnn3ccc(CN4CCC(N)CC4)c23)cc1	6	50	> 5000	790	–
NC1CCN(Cc2ccn3ncnc(Nc4cccc(F)c4)c23)CC1	6	32	> 5000	280	–
NC1CCN(Cc2ccn3ncnc(Nc4cccc(Cl)c4)c23)CC1	4	9	> 5000	60	minimal effective dose [4]: 60 mg/kg
NC1CCN(Cc2ccn3ncnc(Nc4cccc(Br)c4)c23)CC1	4	6	2600	50	–
NC1CCN(Cc2ccn3ncnc(Nc4cc(Cl)cc(Cl)c4)c23)CC1	34	130	4000	3360	–
NC1CCN(Cc2ccn3ncnc(Nc4ccc(F)c(Cl)c4)c23)CC1	6	10	> 5000	120	concentration at 3 h [5]: 7.2 µM; fraction unbound at 10 µM [6]: 0.012; IC50 [7]: 370 nM; minimal effective dose [4]: 15 mg/kg; IC50 [8]: 110 nM; AUC(0-t) at 24 h [9]: 160 µM·h; concentration at 24 h [10]: 6.8 µM
COc1ccc(Nc2ncnn3ccc(CN4CCC(N)CC4)c23)cc1Cl	70	210	> 5000	1210	–
Fc1cccc(Cn2ncc3cc(Nc4ncnn5ccc(COC[C@@H]6CNCCO6)c45)ccc32)c1	–	–	–	–	minimal effective dose (NCI-N87 [11]): 60 mg/kg; fraction unbound at 10 µM [6]: 0.026; AUC(0-t) at 24 h [12]: 100 µM·h; concentration at 24 h [13]: 0.1 µM; concentration at 3 h [14]: 5.8 µM; Cmax [15]: 9.5 µM
NC1CCN(Cc2ccn3ncnc(Nc4ccc5c(cnn5Cc5cccc(F)c5)c4)c23)CC1	22	–	–	–	concentration at 4 h [16]: 2.7 µM; minimal effective dose (NCI-N87 [11]): 60 mg/kg; Cmax [15]: 4.5 µM
Cc1c(NC(=O)OC[C@@H]2COCCN2)cn2ncnc(Nc3ccc4c(cnn4Cc4cccc(F)c4)c3)c12 [AC-480]	–	–	–	–	minimal effective dose (NCI-N87 [11]): 120 mg/kg; minimal effective dose [4]: 120 mg/kg
